Reference: patent US9962447B2, “Supramolecular aggregates comprising maleimido cores” (UFPEPTIDES S.R.L., priority 2013, dated 2018)

What was measured:
DOP receptor = target: T1, DOP receptor (Homo sapiens, UniProt P41143); experiment: Calcium mobilization in CHO cells expressing DOP receptor and GαqG66Di5; format: cell-based
T1 construct: expressed in transfected cells; host or cells: CHO cells co-expressing GαqG66Di5
Description: (§1) Cell cultures were kept at 37° C. in 5% CO2 humidified air. In all cases experimental cultures were free from selection agents (hygromycin B, G418). When confluence was reached (3-4 days), cells were sub-cultured as required using trypsin EDTA and used for experimentation. Cells were seeded at a density of 50,000 cells/well into 96-well black, clear-bottom plates. After 24 hours incubation the cells were loaded with medium supplemented with 2.5 mM probenecid, 3 μM of the calcium sensitive fluorescent dye Fluo-4 AM and 0.01% pluronic acid, for 30 min at 37° C. Afterwards the loading solution was aspirated and 100 μl/well of assay buffer: Hank's Balanced Salt Solution (HBSS) supplemented with 20 mM HEPES, 2.5 mM probenecid and 500 μM Brilliant Black (Aldrich) was added. […] On-line additions were carried out in a volume of 50 μl/well. To facilitate drug diffusion into the wells in antagonist type experiments, the present studies were performed at 37° C. and three cycles of mixing (25 μl from each well moved up and down 3 times) were performed immediately after antagonist injection to the wells.
(§2) Four mice were monitored in parallel. […] Animals locomotion was recorded for 60 min.

human NOP receptor = human NOP receptor (Homo sapiens, UniProt P41146); experiment: Calcium mobilization in CHO cells expressing human NOP receptor and Gαqi5; format: cell-based; conditions: inactive = inactive up to 1 μM
Sequence of human NOP receptor (P41146 whole entry): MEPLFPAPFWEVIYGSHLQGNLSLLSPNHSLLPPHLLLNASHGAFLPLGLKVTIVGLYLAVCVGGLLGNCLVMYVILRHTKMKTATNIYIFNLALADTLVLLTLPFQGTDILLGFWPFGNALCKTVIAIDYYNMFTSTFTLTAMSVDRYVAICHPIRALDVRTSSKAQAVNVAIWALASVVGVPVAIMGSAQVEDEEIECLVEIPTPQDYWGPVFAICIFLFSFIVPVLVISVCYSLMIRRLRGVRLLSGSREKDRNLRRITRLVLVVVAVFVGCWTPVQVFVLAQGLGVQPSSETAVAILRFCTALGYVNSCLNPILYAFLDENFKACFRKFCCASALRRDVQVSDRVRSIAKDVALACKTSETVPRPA
Description: as §1, with “Cells were maintained in culture medium consisting of Dulbecco's MEM/HAM'S F-12 (50/50) supplemented with 10% foetal calf serum, penicillin (100 IU/ml), streptomycin (100 μg/ml), fungizone (2.5 μg/ml), geneticin (G418; 200 μg/ml) and hygromycin B ([…]). Cell cultures” for “Cell cultures”
as §2

KOP receptor = KOP receptor (Homo sapiens, UniProt P41145); experiment: Calcium mobilization in CHO cells expressing KOP receptor and Gαqi5; format: cell-based; conditions: inactive = inactive up to 1 μM
Sequence of KOP receptor (P41145 whole entry, the tested form may be a part): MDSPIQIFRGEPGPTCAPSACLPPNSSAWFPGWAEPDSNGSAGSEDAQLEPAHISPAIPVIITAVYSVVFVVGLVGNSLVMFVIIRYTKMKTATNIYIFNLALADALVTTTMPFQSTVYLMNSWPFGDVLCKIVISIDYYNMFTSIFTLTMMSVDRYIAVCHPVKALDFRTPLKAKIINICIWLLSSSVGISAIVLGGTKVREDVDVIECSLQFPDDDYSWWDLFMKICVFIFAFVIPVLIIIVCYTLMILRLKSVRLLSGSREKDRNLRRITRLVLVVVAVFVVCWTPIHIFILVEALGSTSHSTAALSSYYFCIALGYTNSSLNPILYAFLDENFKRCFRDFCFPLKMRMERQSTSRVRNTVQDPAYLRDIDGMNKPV
Description: as §1, with “Cells were maintained in culture medium consisting of Dulbecco's MEM/HAM'S F-12 (50/50) supplemented with 10% foetal calf serum, penicillin (100 IU/ml), streptomycin (100 μg/ml), fungizone (2.5 μg/ml), geneticin (G418; 200 μg/ml) and hygromycin B ([…]). Cell cultures” for “Cell cultures”, “50 μl/well. […]” for “50 μl/well. To facilitate drug diffusion into the wells in antagonist type experiments, the present studies were performed at 37° C. and three cycles of mixing (25 μl from each well moved up and down 3 times) were performed immediately after antagonist injection to the wells.”
as §2

[1] = tested on: electrically stimulated mouse vas deferens; conditions: versus N/OFQ; Spagnolo et al. 2007; cited from earlier work
[2] = tested on: electrically stimulated mouse vas deferens; experiment: Electrically stimulated mouse vas deferens
Description: The bath temperature was set at 33° C. Tissues were continuously stimulated through two platinum ring electrodes with supramaximal rectangular pulses of 1 ms duration and 0.05 Hz frequency. A resting tension of 0.3 g was applied to the vas deferens.
assuming a slope value equal to unity, where CR indicate the ratio between agonist potency in the presence and absence of antagonist.

[3] = tested on: vas deferens tissues taken from NOP(+/+) mice; experiment: Electrically stimulated vas deferens from NOP(+/+) mice; set-up: species or system mouse
Description: The bath temperature was set at 33° C. Tissues were continuously stimulated through two platinum ring electrodes with supramaximal rectangular pulses of 1 ms duration and 0.05 Hz frequency. A resting tension of 0.3 g was applied to the vas deferens. […] Following an equilibration period of 60 min, the contractions induced by electrical field stimulation were stable.

MOP receptor = MOP receptor (Homo sapiens, UniProt P35372); experiment: Calcium mobilization in CHO cells expressing MOP receptor and Gαqi5; format: cell-based; conditions: inactive = inactive up to 1 μM
Sequence of MOP receptor (P35372 whole entry): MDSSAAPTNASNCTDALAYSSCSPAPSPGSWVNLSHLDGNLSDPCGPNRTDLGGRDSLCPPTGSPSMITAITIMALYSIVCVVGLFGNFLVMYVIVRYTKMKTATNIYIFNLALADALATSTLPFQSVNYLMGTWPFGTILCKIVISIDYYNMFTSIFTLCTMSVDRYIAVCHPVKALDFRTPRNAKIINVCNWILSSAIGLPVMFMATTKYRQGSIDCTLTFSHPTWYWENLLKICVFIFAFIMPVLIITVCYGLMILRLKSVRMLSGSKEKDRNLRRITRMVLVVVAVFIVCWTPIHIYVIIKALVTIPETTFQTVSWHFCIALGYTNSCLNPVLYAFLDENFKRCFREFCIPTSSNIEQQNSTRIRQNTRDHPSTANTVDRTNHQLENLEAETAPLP
Description: as §1, §2

[4] = tested on: vas deferens tissues taken from NOP(−/−) mice; experiment: Electrically stimulated vas deferens from NOP(−/−) mice; set-up: species or system mouse
Description: The mouse vas deferens were prepared as previously described (Calto et al., Eur J Pharmacol. 311, (1996) R3-5). Tissues were suspended in 5 ml organ baths containing heated Krebs solution (composition in mM: NaCl 118.5, KCl 4.7, KH2PO4 1.2, NaHCO3 25, glucose 10 and CaCl2 2.5) oxygenated with 95% O2 and 5% CO2. The bath temperature was set at 33° C. Tissues were continuously stimulated through two platinum ring electrodes with supramaximal rectangular pulses of 1 ms duration and 0.05 Hz frequency. A resting tension of 0.3 g was applied to the vas deferens. The electrically evoked contractions (twitches) were measured isotonically with a strain gauge transducer (Basile 7006, UgoBasile s.r.l., Varese, Italy) and recorded with the PC based acquisition system Power Lab (ADInstrument, USA). Following an equilibration period of 60 min, the contractions induced by electrical field stimulation were stable.

T1 sequence (P41143 whole entry): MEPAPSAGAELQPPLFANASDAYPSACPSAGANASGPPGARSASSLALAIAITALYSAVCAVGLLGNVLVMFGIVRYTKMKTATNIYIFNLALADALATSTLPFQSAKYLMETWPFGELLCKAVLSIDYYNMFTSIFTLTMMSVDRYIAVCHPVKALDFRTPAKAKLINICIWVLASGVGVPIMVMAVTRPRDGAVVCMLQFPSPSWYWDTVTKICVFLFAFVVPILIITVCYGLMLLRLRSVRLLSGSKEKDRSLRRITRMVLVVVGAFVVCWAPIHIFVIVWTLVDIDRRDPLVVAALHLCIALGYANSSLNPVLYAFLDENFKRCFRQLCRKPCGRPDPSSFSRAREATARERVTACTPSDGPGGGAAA

Q: For `C[C@@H](NC(=O)[C@@H](N)Cc1ccc(O)cc1)C(=O)N[C@@H](Cc1ccccc1)C(=O)NCC(=O)N[C@@H](Cc1ccc(O)cc1)C(=O)N1CCC[C@H]1C(=O)N[C@@H](CO)C(N)=O` [Dermorphin], which pEC50 (DOP receptor; inactive = inactive up to 1 μM) is on record?
A: Its pEC50 is “inactive”.

Q: What about the “pEC50 (CL95%)” value (human NOP receptor) of the same molecule?
A: The value was “inactive”.

Q: And the pEC50 (KOP receptor)?
A: Its pEC50 is “inactive”.

Q: With `Cc1cccc2c1CC[C@H](CN1CCC(c3c(Cl)cccc3Cl)CC1)C[C@@H]2O` [SB-612111, reference compound] as the molecule, how does the “SB-612111 pKB, literature” value [1] read?
A: Its value is 8.50.

Q: What about the “effect per se on control twitches” value ([2]; 100 nM) of the same molecule?
A: Its value is “did not modify per se the control twitches”.

Q: And the Kb ([2]; Mus musculus, read-out: SB-612111 pKB (CL95%), SB-612111 100 nM versus N/OFQ (converted))?
A: Its Kb is 3.31 nM.

Q: Which pEC50 ([3]; CL95% in brackets) does the source give for DPDPE here?
A: The pEC50 was 8.45 (8.19-8.71).

Q: What about the Emax ([3]; maximal inhibition of electrically induced contractions) of the same molecule?
A: Its Emax is 91 ± 3%.

Q: And the maximal effects (DOP receptor)?
A: Its maximal effects is 86±14%.

Q: What about the pEC50 (MOP receptor) of the same molecule?
A: The pEC50 was “inactive”.

Q: What about the “pEC50 (CL95%)” value (human NOP receptor) of the same molecule?
A: Its value is “inactive”.

Q: And the pEC50 (KOP receptor)?
A: The pEC50 was “inactive”.

Q: What about the Emax [4] of the same molecule?
A: The Emax was 94 ± 3.

Q: What about the pEC50 ([4]; CL95% in brackets) of the same molecule?
A: The pEC50 was 8.42 (8.16-8.68).

Q: With Dynorphin A as the molecule, how does the “pEC50 (CL95%)” value (human NOP receptor) read?
A: Its value is “inactive”.
